Data published in US20250064773A1, “TARGETING ERO1 ALPHA WITH AURONE DERIVATIVES” (West Virginia University Board of Governors on behalf of …, priority 2021, published 2025).

Target: T1, ERO1α (Homo sapiens, UniProt Q96HE7)
T1 construct: endogenous in cells; host or cells: PC-9
T1 sequence (Q96HE7 24-468): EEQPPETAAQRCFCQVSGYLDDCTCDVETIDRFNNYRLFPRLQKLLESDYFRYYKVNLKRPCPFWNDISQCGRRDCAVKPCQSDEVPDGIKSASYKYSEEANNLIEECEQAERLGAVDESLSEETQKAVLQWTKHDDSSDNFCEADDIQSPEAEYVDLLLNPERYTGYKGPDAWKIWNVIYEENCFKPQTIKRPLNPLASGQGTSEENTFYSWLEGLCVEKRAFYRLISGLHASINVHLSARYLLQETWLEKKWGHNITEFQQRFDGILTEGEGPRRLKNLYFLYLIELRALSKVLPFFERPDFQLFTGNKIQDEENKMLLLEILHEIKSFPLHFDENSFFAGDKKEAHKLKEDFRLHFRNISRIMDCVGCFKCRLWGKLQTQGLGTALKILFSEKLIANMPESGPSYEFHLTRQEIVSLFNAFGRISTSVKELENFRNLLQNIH
Assay: Cellular thermal shift assay (CETSA) in PC-9 cells, ERO1α
Assay type: cell-based
Conditions: 100 μM, 1 hour at 37° C.
Source text: To date activity of T151742 towards other flavoenzymes has not been identified at this time. We utilized the Cellular Thermal Shift Assay (CETSA) to determine target engagement of T151742 in vitro using the non-small cell lung cancer (NSCLC) cell line PC-9. The EGFR driven PC-9 cell line was chosen as new treatment strategies are needed in EGFR driven NSCLC as most patients relapse and become resistant to current targeted therapies with development of further mutations such as T790M, C797S as well as emergence of EGFR independent tumors^42, 43. […] First, we determined the aggregation temperature (Tagg) of ERO1α, ERO1β, and LSD-1, which are all FAD dependent enzymes and potential in vitro targets of T15742. […]
Upon addition of T151742, Tagg was quantified for ERO1α, ERO1β, and LSD-1. Quantification of the average of n=3 independent experiments based on western blot analysis for ERO1α, ERO1β, and LSD-1. […] Cellular viability was determined by MTT assay. n=3 independent experiments performed in quadruplicates. ****p<0.0001; by two-way ANOVA.
Cell Lines: PC-9 cell line used was obtained from Sigma Aldrich and grown in RPMI 1640 medium with 10% fetal bovine serum and 1% penicillin/streptomycin. […] Plate was then read on the BioTek Cytation 5 at 530/590 nm. […]

## CN(C)c1ccc(/C=C2\Oc3cc(O)ccc3C2=O)cc1 [Compound T151742]
  Tagg for ERO1α: > 60 °C
  shift of Tagg for ERO1α: ~6 degrees
